Measured values as given in patent US11214803B2, “Modulators of YAP1 expression” (Ionis Pharmaceuticals, Inc., priority 2019, dated 2022).
Strand notation (5' to 3'): a small letter for the sugar, then the base; units joined by * are phosphorothioate-linked, units joined directly phosphodiester-linked; [ ] holds rarer units or linkages, { } end groups; capitals alone tell only the bases. e = 2'-O-(2-methoxyethyl) (MOE); k = constrained ethyl (cEt); [5mC] = 5-methylcytosine; d = 2'-deoxy (DNA); m = 2'-O-methyl

Tested on: Yap1 mRNA
Experiment: Antisense inhibition of human Yap1 in SNU-449 cells by modified oligonucleotides, single dose (Example 5, RTS36584)
Assay type: cell-based
Settings: for YAP1 (% UTC): SNU-449 cells, 10,000 cells per well, RTS36584
Summary of the method: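 Plate SNU-449 cells at 10,000 per well; add 2,000 nM modified oligonucleotide without transfection reagent; after ~48 h isolate RNA, run qRT-PCR with RTS36584, normalise to RIBOGREEN and report % UTC.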

[1] = Yap1 mRNA, percent of untreated control, modified oligonucleotides targeting SEQ ID NO: 1 and 2, Table 47
[2] = Table 51, Yap1 mRNA remaining as percent of untreated control (UT), SNU-449 cells, single dose
[3] = Table 43 experiment, free uptake, 2,000 nM, approximately 48 hours, Yap1 mRNA normalized to RIBOGREEN, relative to untreated control cells
[4] = Table 48, Yap1 mRNA level relative to untreated control, modified oligonucleotides targeting SEQ ID NO.: 1 and 2
[5] = Table 52, Yap1 mRNA, modified oligonucleotides targeting SEQ ID NO: 1 and 2
[6] = Table 46, Yap1 mRNA as percent of untreated control, SNU-449 cells, single dose

“1096369 (antisense kG*kT*kG*d[5mC]*dT*dT*dT*dG*dG*dA*dA*dG*dA*kT*k[5mC]*kT) [Compound 1096369]” was tested, and the “YAP1 (% UT)” value [1] was 45 % UT.

For “1197306 (k[5mC]*kA*kA*d[5mC]*mU*d[5mC]*dT*dT*dA*dT*dA*dT*dG*kG*kT*kT; antisense) [Compound 1197306]”, the “YAP1 (% UT)” value [2] was 77 % UT.

In the case of “1095575 (antisense kA*k[5mC]*dT*dG*dA*dG*dG*dT*dA*dT*dA*eA*e[5mC]*eT*kG*kG) [Compound 1095575]”, the “YAP1 (% UTC)” value [3] is reported as 55 % UTC.

For “1198766 (kT*e[5mC]*kA*dG*dA*dT*dT*dT*dA*dG*dG*dA*eT*eG*k[5mC]*kA; antisense) [Compound 1198766]”, the “YAP1 (% UTC)” value (Table 40 (separate experiment), free uptake, 2,000 nM oligonucleotide, approx. 48 hours, normalized to RIBOGREEN, Yap1 mRNA relative to untreated control) was 19 % UTC.

For “1198532 (kA*kA*d[5mC]*dT*dT*dT*dA*dA*dA*dG*dT*eG*kT*eA*kT*eG; antisense) [Compound 1198532]”, the “YAP1 (% UTC)” value (Table 44 experiment, free uptake, 2,000 nM, approximately 48 hours, Yap1 mRNA normalized to RIBOGREEN, relative to untreated control cells) was 36 % UTC.

With “1198408 (kG*dT*dG*d[5mC]*dT*dT*dT*dG*dG*dA*dA*kG*eA*kT*e[5mC]*kT; antisense) [Compound 1198408]” the “YAP1 (% UTC)” value (Table 39, free uptake, 2,000 nM oligonucleotide, approx. 48 hours, normalized to RIBOGREEN, Yap1 mRNA relative to untreated control) was 41 % UTC.

For “1197219 (antisense kA*kA*k[5mC]*dT*dT*dT*dA*dA*dA*dG*dT*dG*dT*kA*kT*kG) [Compound 1197219]”, the “YAP1 (% UT)” value [4] was 71 % UT.

“1198557 (antisense kA*kT*kA*dT*dT*dA*dG*dA*dG*dT*dA*dT*kG*kT*kG*eG) [Compound 1198557]” was tested, and the “YAP1 (% UT)” value (Table 49, Yap1 mRNA level relative to untreated control, modified oligonucleotides targeting SEQ ID NO.: 1 and 2) was 16 % UT.

In the case of “1200832 (kA*kT*kT*dT*dA*mG*dG*dA*dT*dG*d[5mC]*dA*dT*kG*kG*kT; antisense) [Compound 1200832]”, the “YAP1 (% UT)” value [5] is reported as 61 % UT.

With “1198845 (kA*kG*dG*dA*dT*dG*d[5mC]*dA*dT*dG*dG*kT*eT*kT*eT*kT; antisense) [Compound 1198845]” the “YAP1 (% UT)” value [6] was 43 % UT.

In the case of “1198287 (kA*kA*kA*dT*dT*dG*dT*d[5mC]*dT*d[5mC]*dA*dT*kG*e[5mC]*k[5mC]*eT; antisense) [Compound 1198287]”, the “YAP1 (% UT)” value [4] is reported as 13 % UT.

“1198883 (kA*kA*dG*dT*dA*dA*dG*dG*dT*dT*dT*k[5mC]*e[5mC]*k[5mC]*eA*kG; antisense) [Compound 1198883]” was tested, and the “YAP1 (% UT)” value [6] was 47 % UT.

With “1198858 (k[5mC]*kT*d[5mC]*dT*dT*dA*dT*dA*dT*dG*dG*kT*eT*kT*eT*kG) [Compound 1198858]” the “YAP1 (% UT)” value [1] was 29 % UT.

For “1197205 (antisense kG*kA*k[5mC]*dA*dA*d[5mC]*dT*d[5mC]*dT*dT*dA*dT*dA*kT*kG*kG) [Compound 1197205]”, the “YAP1 (% UT)” value [4] was 67 % UT.

For “1200848 (kA*kT*kA*dT*dT*mG*d[5mC]*dA*dA*dT*d[5mC]*dT*dG*kT*k[5mC]*kT; antisense) [Compound 1200848]”, the “YAP1 (% UT)” value [5] was 58 % UT.

In the case of “1197256 (antisense kA*kT*kT*dT*mA*dG*dG*dA*dT*dG*d[5mC]*dA*dT*kG*kG*kT) [Compound 1197256]”, the “YAP1 (% UT)” value [2] is reported as 31 % UT.

With “1198823 (kG*kG*dT*dA*dT*dA*dA*d[5mC]*dT*dG*dG*kG*e[5mC]*kA*eA*kA; antisense) [Compound 1198823]” the “YAP1 (% UT)” value [6] was 65 % UT.

In the case of “1198635 (kA*kT*dG*dG*dA*dA*dA*dT*dT*dG*dT*d[5mC]*kT*e[5mC]*kA*eT; antisense) [Compound 1198635]”, the “YAP1 (% UTC)” value (Table 41, free uptake, 2,000 nM modified oligonucleotide, approximately 48 hours, normalized to RIBOGREEN, Yap1 mRNA relative to untreated control cells) is reported as 57 % UTC.

For “1198242 (kA*kT*dT*dT*dA*dG*dG*dA*dT*dG*d[5mC]*eA*eT*eG*kG*kT; antisense) [Compound 1198242]”, the “YAP1 (% UTC)” value [3] was 47 % UTC.

“1200814 (kA*k[5mC]*kT*dT*dT*mU*dA*d[5mC]*dA*dT*dT*dA*dG*kG*kA*kA; antisense) [Compound 1200814]” was tested, and the “YAP1 (% UT)” value [5] was 73 % UT.
